Measurements from US8507485B2, “Cyclic compound having pyrimidinylalkylthio group” (Santen Pharmaceutical Co., Ltd., priority 2005, dated 2013).

What follows are compounds tested on HUVEC (human umbilical vein endothelial cells), VEGF-induced proliferation (assay: Cell proliferation inhibitory action test using a VEGF-induced HUVEC proliferation reaction evaluation system). Details: 20 μg/mL test compound solution, 5 μL per well, WST-8 three days after VEGF addition, absorbance at 450 nm, control 1.0% DMSO.
Assay type: cell-based
Procedure: In order to find the usefulness of the compound of the present invention, a test for inhibitory effects of the compound of the present invention on cell proliferation was carried out using a VEGF-induced HUVEC proliferation reaction evaluation system (HUVEC: human umbilical vein endothelial cells), which is a method of evaluating antiangiogenic effects of drugs, and the antiangiogenic effects of the compounds were evaluated.
As one of the widely used methods of evaluating antiangiogenic effects of drugs, a cell proliferation inhibitory action test using a VEGF-induced HUVEC proliferation reaction evaluation system has been reported in Cancer Res., 59, 99-106 (1999). According to the method described in the above-mentioned document, a cell proliferation inhibitory action test of the compound of the present invention was carried out, and the cell proliferation inhibition rate was calculated. Then, the antiangiogenic effect of each of the compound of the present invention was evaluated using the obtained rate as an index.
(Preparation of Test Compound Solution)
Each test compound was dissolved in dimethyl sulfoxide (hereinafter abbreviated as DMSO), and the obtained solution was diluted with a commercially available phosphate buffer solution (hereinafter abbreviated as PBS), whereby a 20 μg/mL test compound solution was prepared.
(Preparation of HUVEC Suspension)
HUVEC was suspended in F12K medium containing 0.5% fetal bovine serum (hereinafter abbreviated as FBS), whereby a 2×10^4 cells/mL HUVEC suspension was prepared.
(Preparation of VEGF Solution)
VEGF was dissolved in PBS containing 0.1% bovine serum albumin, and the obtained solution was diluted with F12K medium containing 0.5% FBS, whereby a 400 ng/mL VEGF solution was prepared.
(Test Method and Measurement Method)
1) The HUVEC suspension was inoculated in an amount of 100 μL into each well of a 96-well plate coated with type I collagen (2×10^3 cells per well).
2) One day after the inoculation, the test compound solution was added in an amount of 5 μL per well.
3) One hour after the addition of the test compound solution, the VEGF solution was added in an amount of 5 μL per well.
4) Three days after the addition of the VEGF solution, WST-8 assay reagent (Dojin Chemical Co., Ltd.) was added in an amount of 10 μL per well.
5) After 3 hours, the above-mentioned plate was attached to an absorptiometer (Multilabel Counter ARVO), and an absorbance at 450 nm of suspension in each well (hereinafter referred to as a test compound suspension) was measured.
6) A test was carried out in the same manner as in the above 1) to 5) except that 1.0% DMSO was used instead of the test compound solution. The result was used as a control.
Incubation was carried out under conditions of 37° C., 5% carbon dioxide and […] in an incubator throughout the above-mentioned test steps.
(Calculation of Cell Proliferation Inhibition Rate)
The cell proliferation inhibition rate (%), which was used as an index of an antiangiogenic effect, was calculated using the following calculation equation. Cell proliferation inhibition rate (%)=100−{(Absorbance of test compound suspension−A)/(absorbance of control−A)}×100 (Calculation Equation) A: Absorbance of only cell suspension (cells+medium) (Test Results and Discussion)

| Compound | Cell proliferation inhibition rate (%) |
| --- | --- |
| Cc1cc(C)cc(NC(=O)c2sccc2SCc2ccnc(N)n2)c1 [Compound 1-20, 3-(2-Aminopyrimidin-4-ylmethylthio)-N-(3,5-dimethylphenyl) thiophene-2-carboxamide] | 100% |
| O=C(Nc1cccc(C(F)(F)F)c1)c1cccnc1SCc1ccnc(N2CCNCC2)n1 [Compound 4-36, 2-[2-(piperazin-1-yl)pyrimidin-4-ylmethylthio]-N-(3-trifluorophenyl)pyridine-3-carboxamide] | 100% |

Same assay, conditions: Homo sapiens, 72 h, 20 μg/mL test compound solution, 5 μL per well, WST-8 three days after VEGF addition, absorbance at 450 nm, control 1.0% DMSO, read-out: Cell proliferation inhibition rate (%)

| Compound | inhibition at 20 µg/mL (stock) |
| --- | --- |
| Cc1cc(C)cc(NC(=O)c2cccnc2SCc2ccnc(N)n2)c1 [Compound 1-1, 2-(2-Aminopyrimidin-4-ylmethylthio)-N-(3,5-dimethylphenyl)pyridine-3-carboxamide] | 96% |
| CC(C)c1cccc(NC(=O)c2cccnc2SCc2ccnc(N)n2)c1 [Compound 1-7, 2-(2-Aminopyrimidin-4-ylmethylthio)-N-(3-isopropylphenyl)pyridine-3-carboxamide] | 96% |
| Nc1nccc(CSc2ncccc2C(=O)Nc2cc3ccccc3cn2)n1 [Compound 1-12, 2-(2-Aminopyrimidin-4-ylmethylthio)-N-(isoquinolin-3-yl)pyridine-3-carboxamide] | 84% |
| Cc1cc(C)cc(NC(=O)c2ccccc2SCc2ccnc(N)n2)c1 [Compound 1-16, 2-(2-Aminopyrimidin-4-ylmethylthio)-N-(3,5-dimethylphenyl)benzamide] | 100% |
| Cc1cc(C)cc(NC(=O)c2cccnc2SCc2ccncn2)c1 [Compound 1-22, N-(3,5-Dimethylphenyl)-2-(pyrimidin-4-ylmethylthio)pyridine-3-carboxamide] | 100% |
| CSc1nccc(CSc2ncccc2C(=O)Nc2cc(C)cc(C)c2)n1 [Compound 1-26, N-(3,5-Dimethylphenyl)-2-(2-methylthiopyrimidin-4-ylmethylthio)pyridine-3-carboxamide] | 100% |
| CNc1nccc(CSc2ncccc2C(=O)Nc2cc(C)cc(C)c2)n1 [Compound 1-33, N-(3,5-Dimethylphenyl)-2-(2-methylaminopyrimidin-4-ylmethylthio)pyridine-3-carboxamide] | 100% |
| CC(=O)Nc1nccc(CSc2ncccc2C(=O)Nc2cc(C)cc(C)c2)n1 [Compound 2-1, 2-(2-Acetylaminopyrimidin-4-ylmethylthio)-N-(3,5-dimethylphenyl)pyridine-3-carboxamide] | 100% |
| CC(=O)Nc1nccc(CSc2ncccc2C(=O)Nc2ccc(Cl)cc2)n1 [Compound 2-2, 2-(2-Acetylaminopyrimidin-4-ylmethylthio)-N-(4-chlorophenyl)pyridine-3-carboxamide] | 97% |
| CC(=O)Nc1nccc(CSc2ncccc2C(=O)Nc2ccc3c(c2)CCC3)n1 [Compound 2-4, 2-(2-Acetylaminopyrimidin-4-ylmethylthio)-N-(indan-5-yl)pyridine-3-carboxamide] | 99% |
| CC(=O)N(C(C)=O)c1nccc(CSc2ncccc2C(=O)Nc2cc(C)cc(C)c2)n1 [Compound 3-1, 2-(2-Diacetylaminopyrimidin-4-ylmethylthio)-N-(3,5-dimethylphenyl)pyridine-3-carboxamide] | 100% |
| Cc1cc(C)cc(NC(=O)c2cccnc2SCc2ccnc(NC3CC3)n2)c1 [Compound 4-1, 2-(2-Cyclopropylaminopyrimidin-4-ylmethylthio)-N-(3,5-dimethylphenyl)pyridine-3-carboxamide] | 100% |
| Cc1cc(C)cc(NC(=O)c2cccnc2SCc2ccnc(N3CCOCC3)n2)c1 [Compound 4-4, N-(3,5-Dimethylphenyl)-2-(2-morpholinopyrimidin-4-ylmethylthio)pyridine-3-carboxamide] | 100% |
| O=C(Nc1ccc(OC(F)(F)F)cc1)c1cccnc1SCc1ccnc(NC2CC2)n1 [Compound 4-6, 2-(2-Cyclopropylaminopyrimidin-4-ylmethylthio)-N-(4-trifluoromethoxyphenyl)pyridine-3-carboxamide] | 100% |
| O=C(Nc1cccc(C(F)(F)F)c1)c1cccnc1SCc1ccnc(NC2CC2)n1 [Compound 4-9, 2-(2-Cyclopropylaminopyrimidin-4-ylmethylthio)-N-(3-trifluoromethylphenyl)pyridine-3-carboxamide] | 100% |
| Cc1cc(C)cc(NC(=O)c2cccnc2SCc2ccnc(NCCO)n2)c1 [Compound 4-19, N-(3,5-Dimethylphenyl)-2-[2-(2-hydroxyethyl)aminopyrimidin-4-ylmethylthio]pyridine-3-carboxamide] | 100% |
| CCOCCNc1nccc(CSc2ncccc2C(=O)Nc2ccc(OC(F)(F)F)cc2)n1 [Compound 4-22, 2-[2-(2-Ethoxyethyl)aminopyrimidin-4-ylmethylthio]-N-(4-trifluoromethoxyphenyl)pyridine-3-carboxamide] | 100% |
| Cc1cc(C)cc(NC(=O)c2cccnc2SCc2ccnc(N3CCN(CCO)CC3)n2)c1 [Compound 4-25, N-(3,5-Dimethylphenyl)-2-[2-(4-(2-hydroxyethyl)piperazin-1-yl)pyrimidin-4-ylmethylthio]pyridine-3-carboxamide] | 100% |
